The source of these data is patent US4804751A, “Polycyclic hydrocarbon succinimides with psychotropic activity” (American Home Products Corporation, priority 1987, dated 1989).

Structures can show the parent of a compound that is named as a salt. Where two headings read alike, the source gives them in different places.

The target in test [1] is limbic D-2 dopamine receptor (Rattus norvegicus, UniProt P61169). The test is described as follows: biochemical. Particulars: read-out: Limbic D-2 Binding, inhibition.
Sequence of limbic D-2 dopamine receptor (P61169 whole entry): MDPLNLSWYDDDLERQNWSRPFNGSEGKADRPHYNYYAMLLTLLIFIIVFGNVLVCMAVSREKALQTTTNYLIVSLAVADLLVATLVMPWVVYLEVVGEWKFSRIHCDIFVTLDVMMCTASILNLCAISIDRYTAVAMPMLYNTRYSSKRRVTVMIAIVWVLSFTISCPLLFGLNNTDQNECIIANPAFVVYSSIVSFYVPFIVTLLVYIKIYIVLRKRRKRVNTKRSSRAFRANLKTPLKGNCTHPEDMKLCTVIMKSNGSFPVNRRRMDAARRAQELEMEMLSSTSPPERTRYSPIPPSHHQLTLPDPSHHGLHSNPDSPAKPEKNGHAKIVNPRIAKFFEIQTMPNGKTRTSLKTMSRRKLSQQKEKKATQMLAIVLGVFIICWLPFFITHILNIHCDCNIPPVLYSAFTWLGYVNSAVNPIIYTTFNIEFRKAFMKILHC
Test [2] relates to conditioned avoidance responding in rats. Put plainly: conditioned avoidance (shelf-jump response) test. Particulars: i.p.; Table 1.
Procedure: A test designed to determine the potential antipsychotic activity of the compounds of the invention is the conditioned avoidance (shelf-jump response) test.
This test is carried out as follows:
Male CD rats (Charles River) maintained at approximately 400-450 gm body weight are used. […] A moveable wall, controlled by a motor, determines whether the rat has access to the shelf at any time during the experiment. The experimental chamber also contains a house light and sonalert. A steel grid floor in the main chamber is wired for presentation of electric shock. Each trial consists of a fifteen-second warning tone (conditioned stimulus), continuing for an additional fifteen seconds accompanied by electric shock (unconditioned stimulus). A response (jumping onto the exposed shelf of the upper chamber) occurring during the initial fifteen-second warning tone is considered an avoidance response, while a response occurring during shock delivery is considered an escape response. Trials are presented on a fixed interval schedule of one minute. The session consists of thirty-six trials. Animals are run twice weekly with control sessions always preceding a drug run, and with at least one day intervening. Compounds are administered i.p. or p.o. at appropriate pre-treatment times to a minimum of five rats at each dose level over a range of doses.
The following experimental parameters are recorded by computer: (1) the number of avoidance responses, (2) the number of escape responses, and (3) the number of trials in which no response occurred.
Response counts are summed over all subjects at a given dose. […] This number is expressed as a percentage of the total trials. Control performance is arbitrarily assigned a value of 100% for avoidance and the dose calculated to produce a 50% block in avoidance responding (AB50) is obtained from a dose-effect regression line fitted by the method of least squares. Potential anti-psychotic compounds suppress avoidance responding and increase escape responding.
The target of test [3] is T1, 5-HT-1A serotonin receptor (Rattus norvegicus, UniProt P19327).
T1 construct: Hippocampal tissue is dissected and homogenized on ice in 40 vols of buffer; from tissue; host or cells: rat hippocampus, washed membrane homogenate
T1 sequence (P19327 1-422): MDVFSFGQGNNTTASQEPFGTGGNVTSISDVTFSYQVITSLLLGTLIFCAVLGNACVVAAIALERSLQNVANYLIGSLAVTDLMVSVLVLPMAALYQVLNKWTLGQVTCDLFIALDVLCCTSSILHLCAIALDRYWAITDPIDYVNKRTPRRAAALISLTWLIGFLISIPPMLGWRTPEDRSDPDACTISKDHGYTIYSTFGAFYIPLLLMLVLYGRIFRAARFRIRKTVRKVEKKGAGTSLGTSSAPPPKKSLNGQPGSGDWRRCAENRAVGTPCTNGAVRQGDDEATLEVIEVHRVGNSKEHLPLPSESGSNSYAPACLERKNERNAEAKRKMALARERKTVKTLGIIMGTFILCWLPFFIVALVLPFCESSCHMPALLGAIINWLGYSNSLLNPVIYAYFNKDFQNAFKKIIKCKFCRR
Put plainly: ex vivo inhibition of 5-HT-1A serotonin receptor binding (3H-8-OH-DPAT, hippocampal membranes). The procedure: The assay is carried out as follows:
Several groups of rats (4-6 rats/group) are injected with test compound or the appropriate vehicle. Thirty minutes later, unless otherwise noted, rats are decapitated and their brains removed. Various brain regions are dissected and rapidly frozen and maintained at -70° C. until used.
The homogenate is then centrifuged at 20,000 rpm (RC5-B; 50,000 g) and the supernatant discarded. […] The pellet is then resuspended in 100 vols of buffer B (50 mM Tris HCl, pH=7.7 containing 0.1% ascorbate, 10 μM pargyline and 4 mM CaCl2) and sonicated. An aliquot is taken for protein determination by the Lowry method and the remainder stored frozen at -70° C. until used.
Specific binding obtained in vehicle-treated rats is compared to that obtained in animals receiving a single or various doses of test compound and expressed as percent of control.

The mark [4] stands for this setting: Table 3, rat hippocampal tissue, 3H-8-OH-DPAT, read-out: Inhibition Constant (Ki).

What is called inhibition is the change of the read-out against control, counted positive when it falls. A word on the Ki: it is a measure of affinity in units of concentration, obtained from inhibition or displacement. For `O=C1N(CCCCN2CCN(c3ncccn3)CC2)C(=O)C23C4C=CC(C4)C12C1C=CC3C1` (centres unmarked) [Example 1, 1,4,5,8-Tetrahydro-10-[4-[4-(2-pyrimidinyl-1-piperazinyl]butyl]-4a,8a-(methaniminomethano)-1,4:5,8-dimethanonaphthalene-9,11-dione, dihydrochloride, hemihydrate], the inhibition at 1 µM in test [1] came to 53%. The compound further came in with an Active at in test [2] of 40 mg/kg. Besides, in test [3] (setting [4]), the Ki stood at 14 nM.

With `O=C1N(CCCCN2CCN(c3cnccn3)CC2)C(=O)C23C4C=CC(C4)C12C1C=CC3C1` (centres unmarked) [Example 3, 1,4,5,8-Tetrahydro-10-[4-[4-(2-pyrazinyl)-1-piperazinyl]butyl]-4a,8a-(methaniminomethano)-1,4:5,8-dimethanonaphthalene-9,11-dione, dihydrochloride, sesquihydrate], the inhibition at 1 µM in test [1] worked out at 63%. In test [2], this compound returned an Active at of 40 mg/kg. The compound further returned a Ki in test [3] of 12 nM.

In test [2], `O=C1N(CCCCN2CCN(c3ncccn3)CC2)C(=O)C23C4CCC(C4)C12C1CCC3C1` (centres unmarked) [Example 4, Octahydro-10-[4-[4-(2-pyrimdinyl)-1-piperazinyl]butyl]-4a,8a-(methaniminomethano)-1,4:5,8-dimethanonaphthalene-9,11-dione, dihydrochloride] returned an Active at of 40 mg/kg. The Ki in test [3] (setting [4]) is 7 nM.
